Assay results from patent publication US6579888B2, “Method and kit for treating illnesses” (Opt-e-scrip, Inc., priority 1994, dated 2003).

Assays:
hypertensive person = assay: Six-week random double-blind trial of sustained release verapamil as therapeutic alternative to sustained release propranolol; type: in vivo, human; settings: verapamil SR 240 mg once daily versus propranolol SR 180 mg once daily; end of six-week trial; statistically insignificant
Protocol: In this example, the validity of using a sustained release formulation of verapamil 240 mg once daily as a therapeutic alternative to sustained release propranolol 180 mg once daily in a hypertensive person is shown. The trial during which the two medications are randomly administered in a double-blind manner is six weeks. The questionnaire used is set up in a manner similar to that described in above examples except that the questions elicit information related to the disease of hypertension. Blood pressure is taken daily by the patient and weekly by the physician. Lab values and vision tests are also reported weekly by the physician. […] Both values are statistically insignificant and the therapeutic alternative selection is objectively validated.

[1] = system: hyperactive child (Minimum Brain Dysfunction); assay: SPAS single-patient random double-blind crossover trial of methylphenidate versus placebo
Protocol: In this example, the usefulness of methylphenidate (Ritalin) treatment in a hyperactive child (Minimum Brain Dysfunction) is evaluated.
Technology: Consists of instructions, “calendar” packaging for drug and a substantially identical looking placebo to assure appropriate dosing and monitor compliance, questionnaire assessment forms and instructions. […] Results are mailed to the physician and, in this case, parent for use in evaluating the usefulness of the therapy. The physician and parent are contacted, e.g., every three months to provide data on therapies utilized, and perceived outcome, until the condition resolves.
The questionnaire portion of the kit includes an initial consent form for the parent or guardian to complete. The questionnaire also provides background information on the study and possible side effects associated with the medication. Also included therein is a portion for providing relevant patient and family histories. More importantly, the questionnaire, in this case includes a portion for the weekly input by parents or guardian and school observers of answers to questions relating to the drug evaluation. Typical questionnaire sheet for these portions are shown below as Table 1 and Table 2. Physician questionnaires are similarly arranged.
The trial calls for 40 mg daily given at 10 mg four times daily compared to identical appearing placebo given four times daily.

[2] = system: patients with the same disorder (hyperactive child); assay: Pooled SPAS data and monthly follow-up of patients with the same disorder continued on methylphenidate; type: in vivo, human
Protocol: All results obtained from the data are then compared against the results provided by data amassed from a pool of about 200 patients with the same disorder. Of these 200 patients, 55 experienced encouraging results (as did the current patient) and were continued on 40 mg daily treatment. Of these 55 patients, 5 were lost to follow-up, with 50 remaining for prospective evaluation. Because the physician would now choose to continue the patient on 40 mg methylphenidate daily based solely on the isolated SPAS single patient drug trial results, they now take the opportunity of reviewing the pooled data on the 50 patients. This is done to understand under what circumstances this individual patient would likely continue to show benefit from methylphenidate 40 mg treatment, and what conditions lead to treatment failure.
The pool of 50 patients who continued treatment had the following scores following the original SPAS testing:
All 50 patients were followed up by telephone interview monthly for nine months or more, and outcomes were prospectively documented.

[3] = patients with statistically altered sleep patterns, continued 40 mg daily
[4] = pool of 50 patients, original SPAS testing

SMILES	mean diastolic pressure (hypertensive person)	mean systolic blood pressure increase (hypertensive person)	patient's attention span ([1]; 40 mg daily (10 mg four times daily), methylphenidate periods versus placebo periods)	teacher comments ([1]; 40 mg daily, methylphenidate dosing periods)	sleep patterns ([1]; 40 mg daily, methylphenidate periods)	outcome on continued treatment, patients with no statistically altered sleep disturbances ([2]; 40 mg daily, monthly follow-up for nine months or more)	outcome on continued treatment, patients with statistically altered sleep patterns ([2]; 40 mg daily, within two months)	discontinuation from treatment ([2]; all patients with a statistically altered sleep disturbance)	patients who experienced encouraging results and were continued on treatment ([2]; of a pool of about 200 patients, 40 mg daily)	patients who experienced a grand mal seizure [2, 3]	severe episodes of bizarre behaviors / severe adverse event [2, 3]	Attention Span: patients who had substantial improvement ([2]; pool of 50 patients who continued treatment, original SPAS testing)	Sleep Patterns: patients not statistically altered [2, 4]	Sleep Patterns: patients statistically altered [2, 4]	Teacher Comments: corroborate improved attention span [2, 4]	Teacher Comments: did not corroborate improved attention span [2, 4]
COc1ccc(CCN(C)CCCC(C#N)(c2ccc(OC)c(OC)c2)C(C)C)cc1OC (stereo not shown) [verapamil]	essentially stable	3%	–	–	–	–	–	–	–	–	–	–	–	–	–	–
COC(=O)C(c1ccccc1)C1CCCCN1 (stereo not shown) [methylphenidate]	–	–	improved substantially	corroborate improved attention span	statistically altered	continued to be well maintained on treatment	showed loss of symptom control	had to be discontinued from treatment within two months	55 patients	two	90%	100% had substantial	50% were not statistically	50% were statistically altered	80% corroborate improved	20% did not corroborate
